In patent US10646565B2, “Treatment of alzheimer'S disease (AD) with an aluminum salt” (AFFIRIS AG, priority 2014, dated 2020):

Columns and labels:
patients with early AD [1] = experiment: AFF006 clinical trial: patient disposition, reason for discontinuation; assay type: in vivo, human
Experimental: Data supporting the invention are derived from a randomized clinical trial in early AD patients. The study (AFF006; Eudract: 2009-016504-22) randomized early AD patients into 5 treatment arms. Patients of 2 study arms received either 1 mg aluminium or 2 mg aluminium. In total, 99 early AD patients were enrolled into the 2 study arms. Participation of a given patient lasted 18 months.
AFF006 was conducted as a randomized, placebo-controlled, parallel group, double-blind, multi-center phase II study and assessed the clinical and immunological activity as well as the safety and tolerability of repeated s.c. administrations of i.a. aluminium (different doses) in patients with early AD, as defined in the protocol. It was performed in a total of 6 countries: Austria, France, Germany, Slovakia, Czech Republic and Croatia.
The clinical trial comprised 10 regular outpatient visits and 6 telephone interviews. Up to four weeks before start of treatment, a screening visit (Visit 1) was performed to ensure suitability of the patients for the clinical trial and to establish the patients' baseline characteristics. Following screening, eligible patients were randomly allocated to the treatment groups. After randomization at week 0, patients received 6 injections with either 1 or 2 mg aluminium. Injections were applied s.c. by the investigator at weeks 0, 4, 8, 12, 40 and 65 (Visit 2, 3, 4, 5, 7 and 9).
adverse events (AEs) and serious adverse events (SAEs) (number of patients who withdrew due to AEs; reason for withdrawal)

patients with early AD [2] = experiment: AFF006 clinical trial: adapted ADAS-cog, adapted ADCS-ADL and Composite score; assay type: in vivo, human
Excerpt: The present invention provides for the first time an AD treatment that is disease modifying. The effectiveness of the treatment according to the present invention is proven by the parameters required by the drug authorisation authorities, especially the EMEA and the US-FDA. For example, the EMEA guideline for AD treatment requires primary endpoints reflecting the cognitive and the functional domain. Accordingly, a combined (Composite) score is used for the clinical assessment of the present invention. This composite score combines two established scores, one for the cognitive function (ADAS-cog (Alzheimer's Disease Assessment Scale-cognitive subscale)) and one for the functional ability (ADCS-ADL (Alzheimer's Disease Co-operative Study—Activities of Daily Living Inventory)). The adapted ADAS-cog combines items that assess cognitive function. The adapted ADCS-ADL includes items that are sensitive to functional ability. […]
Combined composite according to the present invention: =1.67*Word recall+1.35*Orientation+1.42*Word Recognition+0.55*Recall Instructions+0.81*Spoken Language+1.01*Word Finding+5.42*ONB+0.15*VPAL+0.19*Category Fluency+0.28*Belongings+0.35*Shopping+0.23*Hobbies+0.38*Beverage+0.37*Meal+0.23*Current Events+0.26*TV+0.33*Keeping Appointments+0.37*Travel+0.33*Alone+0.35*Appliance+0.49*Clothes+0.36*Read+0.62*Telephone+0.33*Writing
The primary efficacy variables are the change from baseline (CFB) in cognition as measured by an adapted ADAS-cog, CFB in function as measured by an adapted ADCS-ADL and a combination of CFB in cognition and function as measured by a combined composite:
ADAS-cog and other items included in the adapted ADAS-cog were measured at Visits 1, 2, 3, 5, 6, 7, 8, 9 and 10 or EDV. ADCS-ADL were measured at Visits 2, 5, 6, 7, 8, 9 and 10 or EDV. Items that contributing to the combined primary outcome were measured at Visits 2, 5, 6, 7, 8, 9 and 10 or EDV.
The primary efficacy outcomes all range from 0 to 100. […] Before a composite was calculated, contributing items that are scored in the opposite direction were reversed. […]

Ovalbumin = target: T1, Ovalbumin (Gallus gallus, UniProt P01012); details: pH 7.4; cited from earlier work
T1 sequence (P01012 1-386): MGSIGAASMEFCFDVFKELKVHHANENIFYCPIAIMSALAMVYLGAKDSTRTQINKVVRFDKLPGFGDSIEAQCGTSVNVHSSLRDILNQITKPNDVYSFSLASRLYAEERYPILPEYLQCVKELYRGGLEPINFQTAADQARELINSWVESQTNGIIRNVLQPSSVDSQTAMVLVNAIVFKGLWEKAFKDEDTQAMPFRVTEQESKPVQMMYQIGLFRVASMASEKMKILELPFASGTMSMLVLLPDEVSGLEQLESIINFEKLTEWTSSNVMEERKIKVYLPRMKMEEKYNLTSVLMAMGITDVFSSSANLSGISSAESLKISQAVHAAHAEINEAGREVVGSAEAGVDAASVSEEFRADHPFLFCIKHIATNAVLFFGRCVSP

BSA = BSA (Bos taurus, UniProt P02769); details: pH 7.4; cited from earlier work
BSA, sequence (P02769 25-607): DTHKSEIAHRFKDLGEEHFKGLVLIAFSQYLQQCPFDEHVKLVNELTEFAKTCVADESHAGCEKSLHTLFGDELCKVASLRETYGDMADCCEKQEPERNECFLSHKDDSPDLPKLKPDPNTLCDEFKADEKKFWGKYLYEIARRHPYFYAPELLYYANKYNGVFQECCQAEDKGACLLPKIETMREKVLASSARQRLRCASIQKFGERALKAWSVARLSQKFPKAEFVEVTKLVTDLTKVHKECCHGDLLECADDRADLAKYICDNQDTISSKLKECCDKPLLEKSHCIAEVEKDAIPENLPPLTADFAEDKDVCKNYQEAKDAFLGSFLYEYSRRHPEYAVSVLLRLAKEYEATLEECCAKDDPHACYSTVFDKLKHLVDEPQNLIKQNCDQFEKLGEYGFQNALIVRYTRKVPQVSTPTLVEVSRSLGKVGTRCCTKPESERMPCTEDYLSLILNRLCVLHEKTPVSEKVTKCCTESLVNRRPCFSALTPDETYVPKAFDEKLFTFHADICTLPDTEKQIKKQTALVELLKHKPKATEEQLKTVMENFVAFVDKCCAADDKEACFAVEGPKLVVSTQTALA

Substance: aluminium oxyhydroxide
- Reason for Discontinuation from the Study: Death: subjects % (patients with early AD [1]; 1 mg s.c., N = 48): (4.2%)
- Reason for Discontinuation from the Study: Death: subjects n (patients with early AD [1]; 1 mg s.c., N = 48): 2
- Reason for Discontinuation from the Study: Death: subjects % (patients with early AD [1]; 2 mg s.c., N = 51): (0.0%)
- Reason for Discontinuation from the Study: Death: subjects n (patients with early AD [1]; 2 mg s.c., N = 51): 0
- parameters informing on the progression of the disease (change in Composite score) (patients with early AD [2]; 2 mg group vs 1 mg group, all patients, FIG. 1): compares favourably
- Adapted ADAS-cog: disease progression (patients with early AD [2]; 2 mg group, over 18 months, FIG. 3): Slowing of disease progression
- effect on disease progression (Composite score) in mild population (patients with early AD [2]; mild population (baseline MMSE score of 24 and higher), 2 mg vs 1 mg, FIG. 2): most pronounced in the cohort of patients in earlier disease stages
- maximal binding capacity to Ovalbumin (pI 4.6) (Ovalbumin): 1.6±0.1 mg protein/mg aluminum
- maximal binding capacity to BSA (pI 4.9) (BSA): 2.2±0.1 mg protein/mg aluminum
